US20110288154A1, “RNA Interference Mediated Inhibition of Epithelial Sodium Channel (ENaC) Gene Expression Using Short Interfering Nucleic Acid (siNA)” (MERCK & CO., INC., priority 2008, published 2011)

Tested on: ENaC
Experiment: FLIPR assay of sodium transport in recombinant HEK cells over expressing ENaC
Type: cell-based, human
Details: recombinant HEK cells expressing ENaC
Description: Recombinant HEK293 cell line (expressing ENaC beta & gamma) SCNN1B (P618AY620L)+SCNN1G (P624stop) #24. were grown at 37 deg in the presence of CO2 and were cultured in M1 medium M1+0.5 mg/ml geneticin and 0.2 mg/ml hygromycin.
Functional Effects on ENaC via FLIPR in Cells Over Expressing ENaCa: A reverse transfection methodology was used to transfect the HEK recombinant cell line. 5 ul of siRNA (diluted in Optimem to the appropriate concentration) was mixed with 5 ul of the Gemini lipid transfection reagent diluted in Optimem in 384 well non-coated FLIPR plate. Plates were incubated at room temperature for 20 minutes to allow complex formation. Cells were harvested, spun down, diluted to 3×10^5/ml and plated out at 40 ul/well (12K/well) in 384 well plate format containing the transfection complex. The plates were incubated overnight for 20 hours. The cells were then transduced with BacMam virus expressing ENaC alpha (BacMam viruses expressing SCNN1A, GRITS 29703, titre 0.356×10^8/ml). 30 ul of virus was added (1.7%) 20K/well, MOI was approximately 1. Cells were incubated for 24 hours. On day of the FLIPR assay, media was aspirated, leaving 10 ul volume. 20 ul of dye per well was loaded (FMP2 Blue dye, R8181, MDS. For each pot, 133 ml Tyrodes buffer was diluted to make 1× stock prior to assay). The plate was incubated for 0.5 hours at room temperature and 10 ul of the compound added on-line prior to FLIPR read (FLIPR settings: protocol Na MP.fcf, with Exposure length 0.4 sec and Filter #2). Compound plate: 1 ul volume, column 1, 2 and 3 are 16, 4 and 0 uM amiloride final (1/200 dilution) (IC80, IC50 and ctrl).

For `N=C(N)NC(=O)c1nc(Cl)c(N)nc1N` [Amiloride, reference compound], the IC50 (read-out: IC50 of inhibitor in FLIPR assay) was 4 µM and the IC80 (read-out: IC80 of inhibitor in FLIPR assay) was 16 µM.
